Source: article PMC7718273 (Scientific Reports, 2020)

Tests used:
[1] = molecular target: T1, PREP (Homo sapiens, UniProt P48147); experiment: PREP activity, fluorometric assay with AMC substrate; assay type: biochemical
T1 construct: purchased R&D Systems 4308-SE
Procedure: Recombinant human PREP (hPREP) (catalog no. 4308-SE), hDPP2/7 (catalog no. 3438-SE), hDPP9 (catalog no. 5419-SE), hFAP (catalog no. 3715-SE), and hDPP4 (catalog no. 9168-SE) proteins were from R&D Systems (Minneapolis, MN). Human FGF21 (catalog no. CRF159C) was from Cell Science (Newburyport, MA).
FAP enzyme activities were assayed in 20 mM Tris/HCl, 0.1 M NaCl, 1 mM EDTA (pH 8.0) in the presence of 40 μM Suc-Gly-Pro-Leu-Gly-Pro-AMC (#I-1350.0100, BACHEM, Bubendorf, Switzerland) and hFAP in a total volume of 100 µL. […] The inhibitor concentrations ranged from 100 μM to 0.03 nM, and its IC50 values were computed with commercially available curve-fitting programs such as the SigmaPlot. Other protease activities were determined in a similar manner.

[2] = test system: T2, recombinant human FAP; experiment: FAP-mediated cleavage of hFGF21 in cell-free system (SDS-PAGE/immunoblot); assay type: biochemical; conditions: hFGF21 200 nM, hFAP 50 nM, SDS-PAGE
T2 construct: purchased R&D Systems 3715-SE

[3] = Plasma stability, rat; assay type: in vitro ADME; conditions: pH 7.4, rat (R), read-out: Plasma stability (% remaining at 60 min)
Procedure: Aliquots were then transferred in duplicate to: (i) a final concentration plate that was immediately quenched with 23.6 ng/mL internal standard (IS, chlorpropamide) in acetonitrile (ACN) or (ii) tubes, which were centrifuged for 5 min at 4℃ (14,000 rpm). The samples were subjected to LC–MS/MS analysis on an AB Sciex 4000 Q Trap hybrid triple quadrupole linear ion-trap MS (AB Sciex, Framingham, MA) coupled to an Agilent 1200 HPLC (Agilent Tech. Santa Clara, CA) with a reverse-phase Kinetex XB-C18 column (2.1 × 100 mm, 2.6 µm; Phenomenex). Mobile phases were comprised of 0.1% formic acid (FA) in water (A) and 0.1 FA in ACN (B). Data analysis was performed using […] (Ver. 1.6.1).

[4] = Plasma protein binding, mouse; assay type: in vitro ADME; conditions: mouse (M), read-out: Plasma protein binding (% bound) (converted)
[5] = Pharmacokinetic study in mice; assay type: in vivo, C57BL/6J mice; conditions: mouse, plasma
Procedure: Mice were administered with BR103354 either p.o. […] (2 mg/kg). […] These samples were then centrifuged at 13,000 rpm for 10 min to obtain plasma. […] Samples were analyzed on an API 4500 Qtrap LC‐MS/MS system (Applied Biosystems/MDS Sciex, Toronto, Canada) coupled with Agilent 1200 HPLC (Agilent Technologies, Santa Clara, CA). Plasma concentration–time data were analyzed by non-compartmental method using the nonlinear least-squares regression program WinNonlin (Pharsight, Mountain View, CA).

[6] = Pharmacokinetic study in rats; assay type: in vivo; conditions: male, Sprague-Dawley, plasma, rat, oral 10 mg/kg
Description: Six male Sprague–Dawley rats (7-week-old, 240–250 g) were obtained from Orient Bio INC. (Seongnam, Gyeonggi-do, Korea) and maintained at 22℃ on a 12-h light/12-h dark cycle with free access to water. All animals were maintained under such conditions for a minimum of 2 weeks prior to initiation of the studies. […] Plasma sample preparations and analysis were the same as described in mice study.

[7] = Pharmacokinetic study in monkeys; assay type: in vivo; conditions: male, cynomolgus, cynomolgus monkey, plasma, inhaled or intranasal; for AUC(0-t): read-out: AUC(0–6 h)
Procedure: Six male cynomolgus monkeys (4.5–5.5 kg) were obtained from Sichuan Primed Shines Bio-tech Co., Ltd (Chengdu, Sichuan, China) and maintained at 18–26 °C, a relative humidity of 40%-70%, a minimum of 8 air changes/h, and a 12-h light/12-h dark cycle. […] Plasma sample preparations and analysis were the same as described in mice study.

[8] = test system: T3, endogenous mouse FAP; experiment: Acute study using ob/ob mice: plasma FAP activity; assay type: in vivo; conditions: single oral dose 20 or 50 mg/kg, in 1 h, maintained up to 9 h
T3 construct: from tissue; host or cells: mouse serum/plasma (ob/ob and C57BL/6J mice)

[9] = molecular target: serum FAP (Macaca fascicularis, UniProt A0A2K5VGH4); experiment: IC50 on serum FAP, monkeys; assay type: biochemical; conditions: read-out: Serum FAP IC50 (nM): Monkey
Chain of serum FAP (A0A2K5VGH4 entry or part of it): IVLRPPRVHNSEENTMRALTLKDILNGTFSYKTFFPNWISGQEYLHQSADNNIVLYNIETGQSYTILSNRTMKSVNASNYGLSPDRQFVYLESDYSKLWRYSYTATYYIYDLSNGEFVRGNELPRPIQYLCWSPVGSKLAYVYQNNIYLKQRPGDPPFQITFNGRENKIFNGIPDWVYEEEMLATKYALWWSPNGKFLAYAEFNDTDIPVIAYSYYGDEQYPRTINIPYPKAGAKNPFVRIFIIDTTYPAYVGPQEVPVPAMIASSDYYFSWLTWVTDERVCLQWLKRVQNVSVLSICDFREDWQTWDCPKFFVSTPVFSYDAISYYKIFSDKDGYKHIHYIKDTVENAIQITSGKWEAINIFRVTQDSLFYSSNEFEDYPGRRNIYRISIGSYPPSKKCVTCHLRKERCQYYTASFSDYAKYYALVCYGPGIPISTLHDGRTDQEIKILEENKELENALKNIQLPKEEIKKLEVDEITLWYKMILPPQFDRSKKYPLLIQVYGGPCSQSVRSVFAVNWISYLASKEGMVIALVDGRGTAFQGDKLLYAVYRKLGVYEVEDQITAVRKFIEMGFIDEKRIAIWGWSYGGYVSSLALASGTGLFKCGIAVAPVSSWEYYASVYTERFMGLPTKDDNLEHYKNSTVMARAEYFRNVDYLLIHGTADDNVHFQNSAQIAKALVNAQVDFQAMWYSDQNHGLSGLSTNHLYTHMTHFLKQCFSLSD

[10] = male, C57BL/6J, po, p.o. 1 mg/kg
[11] = male, C57BL/6J, po, p.o. 5 mg/kg
[12] = male, C57BL/6J, po, p.o. 10 mg/kg
[13] = male, C57BL/6J, po, p.o. 100 mg/kg
[14] = male, C57BL/6J, po, p.o. 200 mg/kg

T1 sequence (P48147 whole entry): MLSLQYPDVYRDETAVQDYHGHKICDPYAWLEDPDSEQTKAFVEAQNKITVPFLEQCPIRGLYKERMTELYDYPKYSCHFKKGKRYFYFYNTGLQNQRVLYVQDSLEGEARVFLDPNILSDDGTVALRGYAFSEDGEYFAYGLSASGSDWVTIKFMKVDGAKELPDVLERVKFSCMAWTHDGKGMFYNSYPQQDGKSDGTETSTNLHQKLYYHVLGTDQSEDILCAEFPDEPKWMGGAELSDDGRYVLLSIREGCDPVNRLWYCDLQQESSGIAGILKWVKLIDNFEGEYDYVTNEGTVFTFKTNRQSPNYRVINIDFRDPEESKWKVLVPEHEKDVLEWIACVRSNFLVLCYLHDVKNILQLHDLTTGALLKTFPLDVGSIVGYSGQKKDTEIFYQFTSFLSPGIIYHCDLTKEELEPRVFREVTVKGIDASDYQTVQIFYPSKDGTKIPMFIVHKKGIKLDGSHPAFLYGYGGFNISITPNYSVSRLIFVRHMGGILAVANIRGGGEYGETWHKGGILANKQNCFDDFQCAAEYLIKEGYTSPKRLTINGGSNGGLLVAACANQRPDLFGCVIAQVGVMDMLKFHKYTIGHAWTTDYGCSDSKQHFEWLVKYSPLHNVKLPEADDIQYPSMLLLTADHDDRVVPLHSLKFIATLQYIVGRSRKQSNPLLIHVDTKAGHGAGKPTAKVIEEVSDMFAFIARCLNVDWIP

SMILES: N#Cc1ccc(Cc2nc(C(=O)NCC(=O)N3CC(F)(F)C[C@H]3C#N)cs2)cc1 [BR103354, (S)-N-(2-(2-cyano-4,4-difluoropyrrolidin-1-yl)-2-oxoethyl)-2-(4-cyanobenzyl)thiazole-4-carboxamide]
- IC50 [1]: 387 nM
- concentration from which FAP-mediated hFGF21 cleavage was inhibited [2]: 0.4 µM
- remaining at 1 h, 1 µM [3]: 79%
- fraction unbound at 1 µg/mL [4]: 0.22
- half-life ([5]; male, C57BL/6J, po, mice, all doses, read-out: half-life (T1/2), range over doses): 1.2 to 4 h
- AUC(0-t) [5, 10]: 3700 ng·h/mL
- Cmax [5, 10]: 2300 ng/mL
- Tmax [5, 10]: 0.5 h
- half-life ([5]; male, C57BL/6J, po, p.o. 1 mg/kg, read-out: T1/2 (converted)): 1.2 h
- AUC(0-t) [5, 11]: 10800 ng·h/mL
- Cmax [5, 11]: 7200 ng/mL
- Tmax [5, 11]: 0.5 h
- half-life ([5]; male, C57BL/6J, po, p.o. 5 mg/kg, read-out: T1/2 (converted)): 1.1 h
- AUC(0-t) [5, 12]: 41100 ng·h/mL
- Cmax [5, 12]: 19200 ng/mL
- Tmax [5, 12]: 0.5 h
- half-life ([5]; male, C57BL/6J, po, p.o. 10 mg/kg, read-out: T1/2 (converted)): 1.2 h
- AUC(0-t) [5, 13]: 17000 ng·h/mL
- Cmax [5, 13]: 66000 ng/mL
- Tmax [5, 13]: 1 h
- half-life ([5]; male, C57BL/6J, po, p.o. 100 mg/kg, read-out: T1/2 (converted)): 4 h
- AUC(0-t) [5, 14]: 29200 ng·h/mL
- Cmax [5, 14]: 122000 ng/mL
- Tmax [5, 14]: 1 h
- half-life ([5]; male, C57BL/6J, po, p.o. 200 mg/kg, read-out: T1/2 (converted)): 3.8 h
- bioavailability ([5]; male, C57BL/6J, oral, i.v. 2 mg/kg): 48.4%
- Tmax ([5]; summary in discussion, species and dose not stated): 1 h
- half-life ([5]; summary in discussion, species and dose not stated, read-out: T1/2 (converted)): 1.2 h
- Cmax [6]: 4400 ng/mL
- Tmax [6]: 1.1 h
- half-life [6]: 3.5 h
- AUC(0-t) ([6]; read-out: AUC(0–6 h)): 19700 ng·h/mL
- Cmax ([7]; monkey, 10 mg/kg intranasally): 420 ng/mL
- Tmax ([7]; monkey, 10 mg/kg intranasally): 2.3 h
- AUC(0-t) ([7]; monkey, 10 mg/kg intranasally): 1200 ng·h/mL
- half-life ([7]; monkey, 10 mg/kg intranasally, read-out: T1/2 (converted)): 1.3 h
- Cmax ([7]; monkey, 30 mg/kg intranasally): 2000 ng/mL
- Tmax ([7]; monkey, 30 mg/kg intranasally): 2.3 h
- AUC(0-t) ([7]; monkey, 30 mg/kg intranasally): 6400 ng·h/mL
- half-life ([7]; monkey, 30 mg/kg intranasally, read-out: T1/2 (converted)): 2.8 h
- half-life ([7]; monkeys, 10/30 mg/kg, read-out: half-life (T1/2), range over doses): 1.3 to 2.8 h
- Tmax ([7]; monkeys, dose not given in the sentence (10/30 mg/kg)): 2.3 h
- inhibition of plasma FAP activity [8]: more than 70%
- IC50 [9]: 27 nM
